Assay results: patent US12617818B2, “Compositions and methods for modulating myosin subfragment-2 coiled coil stability and methods for using them” (UNIVERSITY OF NORTH TEXAS, priority 2020, dated 2026)
Where “and” joins values, the source holds several entries; their conditions need not be identical. Equal values may be shown once.

Assays:
[1] = target: T1, cardiac muscle myosin S2 peptide (MYH7) (Homo sapiens, UniProt P12883); test: Gravitational force spectroscopy (GFS), uncoiling of cardiac myosin S2 peptide dimer; format: biochemical; details: for Force required to uncoil S2 molecule: length 10 nm, in presence of the anti-S2 peptide, ± SEM
T1 construct: host or cells: chemical synthesis
T1 sequence (P12883 912-947 limits assumed): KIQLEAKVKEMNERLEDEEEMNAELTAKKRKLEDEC
Excerpt: 3-aminopropyltriethoxysilane, acetone, coupling buffer (0.01 M pyridine in water with pH 6.0), 5% glutaraldehyde, quenching solution (1 M glycine in water with pH 7.0), blocking buffer (0.01 M Tris, 0.1% sodium azide, 0.1% bovine serum albumin, 0.15 M sodium chloride, and 0.001 M ethylenediaminetetraacetic acid with pH 7.0), wash buffer (0.01 M Tris, 0.1% sodium azide, 0.15 M sodium chloride, and 0.001 M ethylenediaminetetraacetic acid with pH 7.0) low salt buffer (0.1 M potassium chloride, 0.02 M imidazole, 5 mM magnesium chloride, with pH 7.0), 1-ethyl-3-(3-dimethyaminopropyl) carbodiimide, N-hydroxysuccinamide, iodoacetamide-succinimidyl ester, 8M urea solution (50 mM imidazole and 0.1 mM tris (2-carboxyethyl) phosphine with pH 7.0) monodisperse silica beads, glass slides, glass coverslips, vacuum grease, rabbit skeletal myosin, purified actin (G-actin), 1 μM human β-cardiac myosin S2 peptide, 1 μM human β-cardiac mutants myosin S2 peptide (E930del and E924K), 1 μM human skeletal myosin S2 peptide, 1 μM human smooth myosin S2 peptide, stabilizer peptide, and destabilizer peptide. A light microscope with an objective lens of 10× was mounted on an alt-azimuthal mount. A digital video camera of Sony, XCD-V60 was replaced with the ocular lenses. Extension springs on steel bracket held the alt-azimuthal mount suspended.
Gravitational force spectroscopy (GFS), is a single molecule force spectroscopy that utilizes gravitational force to measure absolute length of a single molecule at the given force calculated by the density of the bead suspending the molecule. This technique was discovered and developed in Root lab, which measures the forces in piconewton and sub-piconewton levels. Other than absolute length of a molecule, GFS measures force range required to uncoil, stretch or extend the molecule yielding a force-distance profile for the suspended molecule. Besides that, based on the force-distance profile, number of amino acids within the molecule can be calculated. […] The GFS allowed to test the flexibility or stability of a single molecule of myosin S2 peptide and also for the S2 peptides treated with anti-S2 peptides. Flexibility of myosin S2 is not dependent on assembly myosin as a thick filament or myosin in its single molecule form. The flexibility of myosin S2 region was reported to be similar in single molecule form or myosin in a thick filament assembly thus it could be conceived that the changes seen on flexibility of myosin S2 in presence of anti-S2 peptides would correlate to changes in myosin S2 flexibility for myosin in a thick filament form (Singh et al., 2018). The schematic diagram of GFS is shown below (schematic diagrams of GFS which has two modes: (FIG. 15) free-fall mode, (FIG. 16) rotational mode.
GFS set up assembly contains a light microscope that is horizontally mounted on an alt-azimuthal which is suspended with help of extension springs on a steel bracket. To capture both images and videos of suspended molecule, a digital video camera has been placed instead of the ocular lenses. The molecule of interest is tethered between an immobile edge of glass coverslip placed on a glass slide and mobile silica or glass bead. Slide with the molecule of interest in inserted into the light microscope component of GFS. The bead with molecule of interest is imaged through the microscope and then oriented to the direction of gravity vector to allow the maximal gravitation force exerted on to the bead. GFS has two modes, one is called rotational mode or an equilibrium mode which measures the absolute length of a single molecule and the second one is called free fall mode which measures the force required to unwind, uncoil, stretch or extend the molecule of interest.
Free fall mode, another measurement variant of GFS which allows the user to get a force distance profile on a single molecule experiencing the gravitational force. […]

[2] = target: T2, human cardiac myosin S2 peptide (Homo sapiens, UniProt P12883); test: Competitive ELISA (cELISA) against polyclonal anti-S2 antibody; format: binding; details: curve fit of OD vs peptide concentration; read-out: binding efficiency (Kd) to human cardiac myosin S2 peptide
T2 construct: The 19 residue peptide was chemically synthesized
Method: Phosphate buffer saline (PBS) contained 0.14 M sodium chloride, 2.7 mM potassium chloride, 1.5 mM potassium phosphate monobasic, and 8.1 mM sodium phosphate dibasic with pH 7.4. Detergent buffer was made with 0.05% triton X-100 in PBS, blocking buffer was made with 3% powdered milk in detergent buffer. Assay buffer contained 100 mM potassium phosphate dibasic, 100 mM potassium phosphate monobasic, 1 M potassium chloride and 10 mM magnesium chloride with pH 7.0. Stocks of primary antibody (polyclonal antibody anti-S2), rabbit skeletal myosin, human cardiac myosin S2 peptide, stabilizer and destabilizer peptide. Secondary antibody conjugated with alkaline phosphatase was anti-guinea pig immunoglobulin G (IgG)-alkaline phosphatase (Sigma-Aldrich, catalog number A5062) produced in goat and isolated by affinity chromatography. Substrate was 5-Bromo-4-chloro-3-indolyl phosphate (BCIP) tablets dissolved in 10 ml of distilled water per tablet and 96 well microtiter plate.
Competitive Enzyme Linked Immunosorbent Assay (cELISA) is a classical immunochemical test to validate the binding efficiency and specificity in lower molar concentrations (Yorde et al., 1976; Voller et al., 1978; Walker, J. M. 1996). In this assay the polyclonal antibody anti-S2 raised against single alpha helix of myosin S2 would be used to compete with stabilizer or destabilizer peptide to bind myosin S2 in rabbit skeletal myosin molecule as well as small human cardiac myosin S2 peptide. This cELISA, thus have two molecules polyclonal anti-S2 and stabilizer peptide which have two binding sites one on rabbit skeletal myosin and the other one being on small human cardiac myosin S2. Since both polyclonal anti-S2 and stabilizer peptide were designed against human β-cardiac myosin S2 they both would have a stronger affinity towards the smaller human β-cardiac myosin S2 peptide against the myosin S2 on rabbit skeletal myosin.
To test the binding specificity and efficiency of stabilizer or destabilizer peptide the following setup was used. Start of the setup would be to coat the wells with rabbit skeletal myosin molecule and add appropriate amount human cardiac myosin S2 peptide that would bind the primary polyclonal anti-S2 antibody and when washed there won't be enough primary polyclonal anti-S2 antibody to bind myosin S2 of rabbit skeletal myosin adsorbed on the wells. When alkaline phosphatase conjugated secondary antibody is added on to the wells, it won't have enough or none primary polyclonal anti-S2 antibody to bind. After addition of color developing BCIP substrate to the wells it would lead to low or no color development leading to lower optical density (OD). […]

Force required to uncoil S2 molecule [1] [pN]	Force required to uncoil S2 molecule ([1]; listed as destabilizer)	decrease of force required to uncoil the coiled coil ([1]; vs absence of anti-S2 peptide) [times]	Kd [2]	Force required to uncoil S2 molecule ([1]; listed as stabilizer)	increase of force required to uncoil the coiled coil ([1]; vs absence of anti-S2 peptide) [times]	Compound
4.36E−01 ± 3.30E−02	4.36×10^−1±3.30×10^−2 pN	1.98	6 nM and 1 nM	–	–	CSCC[C@H](NC(=O)[C@H](CCC(=O)O)NC(=O)[C@H](CCCNC(=N)N)NC(=O)[C@H](CCC(=O)O)NC(=O)[C@H](CC(=O)O)NC(=O)[C@H](CCC(=O)O)NC(=O)[C@H](CC(C)C)NC(=O)[C@H](CCCNC(=N)N)NC(=O)[C@H](CCC(=O)O)NC(=O)[C@H](CC(N)=O)NC(=O)[C@H](CCSC)NC(=O)[C@@H](N)CCC(=O)O)C(=O)N[C@@H](CCCCN)C(=O)N[C@@H](C)C(=O)N[C@@H](CCC(=O)O)C(=O)N[C@@H](CC(C)C)C(=O)N[C@H](C(=O)N[C@@H](C)C(=O)N[C@@H](CCCCN)C(=O)O)[C@@H](C)O [Destabilizer]
1.55E+00 ± 1.46E−01	–	–	1 nM	1.55±1.46×10^−1 pN	1.80	C[C@H](NC(=O)[C@H](CCCCN)NC(=O)[C@H](Cc1ccccc1)NC(=O)[C@H](CCCCN)NC(=O)[C@H](CCCCN)NC(=O)[C@H](CCCCN)NC(=O)[C@H](CCCCN)NC(=O)[C@H](CCCCN)NC(=O)[C@H](CCCCN)NC(=O)[C@H](CCCCN)NC(=O)[C@@H](N)CCCCN)C(=O)N[C@@H](CCCCN)C(=O)N[C@@H](CCCCN)C(=O)N[C@@H](CCCCN)C(=O)N[C@@H](CCCCN)C(=O)N[C@@H](CCCCN)C(=O)N[C@@H](CCCCN)C(=O)O [Stabilizer]
